Columns and labels:
Format in all cases: functional, cell-based
[1] = molecular target: Solute carrier organic anion transporter family member 2A1 (Homo sapiens, UniProt Q92959); assay: (§1) TP_TRANSPORTER: inhibition of PGE2 uptake in PGT-expressing HeLa cells
[2] = molecular target: Solute carrier organic anion transporter family member 2A1 (Mus musculus, UniProt Q9EPT5); assay: as §1
[3] = molecular target: Solute carrier organic anion transporter family member 2A1 (Rattus norvegicus, UniProt Q00910); assay: as §1

Chain of Solute carrier organic anion transporter family member 2A1 (Mus musculus, UniProt Q9EPT5) (Q9EPT5 whole entry): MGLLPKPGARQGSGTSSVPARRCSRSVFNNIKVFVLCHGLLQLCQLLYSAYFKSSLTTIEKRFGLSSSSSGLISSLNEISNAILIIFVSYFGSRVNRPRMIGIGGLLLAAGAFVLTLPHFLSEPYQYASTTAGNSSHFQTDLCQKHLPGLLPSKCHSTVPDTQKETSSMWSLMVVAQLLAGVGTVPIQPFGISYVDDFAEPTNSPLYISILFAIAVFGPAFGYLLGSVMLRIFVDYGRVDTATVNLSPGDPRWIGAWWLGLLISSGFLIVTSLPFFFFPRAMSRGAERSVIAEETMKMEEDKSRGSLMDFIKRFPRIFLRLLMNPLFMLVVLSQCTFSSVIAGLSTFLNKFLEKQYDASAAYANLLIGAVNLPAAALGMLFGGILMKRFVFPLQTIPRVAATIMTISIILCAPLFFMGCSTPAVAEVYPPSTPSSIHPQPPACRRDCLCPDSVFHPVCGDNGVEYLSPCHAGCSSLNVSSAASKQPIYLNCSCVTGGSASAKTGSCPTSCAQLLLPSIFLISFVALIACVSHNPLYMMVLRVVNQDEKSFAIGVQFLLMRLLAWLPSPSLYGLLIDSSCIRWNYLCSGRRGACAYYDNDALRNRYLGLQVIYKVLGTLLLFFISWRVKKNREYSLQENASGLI

| Structure (SMILES) | Ki [1] | Ki [2] | Ki [3] |
| --- | --- | --- | --- |
| CCCCC[C@H](O)/C=C/[C@@H]1[C@@H](C/C=C\CCCC(=O)O)[C@@H](O)C[C@H]1O [DINOPROST] | 23 nM | 104 nM | 45 nM |
| CCCCC[C@H](O)/C=C/[C@H]1C(=O)C[C@H](O)[C@@H]1C/C=C\CCCC(=O)O [PROSTAGLANDIN D2] | 38 nM | 98 nM | 45 nM |

From ChEMBL document CHEMBL2074268, “Cloning of mouse prostaglandin transporter PGT cDNA: species-specific substrate affinities” (Am J Physiol, 1999)
